One data set concerns the target T1, CYP2C8 (Homo sapiens, UniProt P10632).
T1 construct: Pooled human liver microsomes were obtained from Biopredic (Rennes, France); tissue Biopredic (Rennes, France); host or cells: pooled human liver microsomes, seventeen donors
T1 sequence (P10632 1-490): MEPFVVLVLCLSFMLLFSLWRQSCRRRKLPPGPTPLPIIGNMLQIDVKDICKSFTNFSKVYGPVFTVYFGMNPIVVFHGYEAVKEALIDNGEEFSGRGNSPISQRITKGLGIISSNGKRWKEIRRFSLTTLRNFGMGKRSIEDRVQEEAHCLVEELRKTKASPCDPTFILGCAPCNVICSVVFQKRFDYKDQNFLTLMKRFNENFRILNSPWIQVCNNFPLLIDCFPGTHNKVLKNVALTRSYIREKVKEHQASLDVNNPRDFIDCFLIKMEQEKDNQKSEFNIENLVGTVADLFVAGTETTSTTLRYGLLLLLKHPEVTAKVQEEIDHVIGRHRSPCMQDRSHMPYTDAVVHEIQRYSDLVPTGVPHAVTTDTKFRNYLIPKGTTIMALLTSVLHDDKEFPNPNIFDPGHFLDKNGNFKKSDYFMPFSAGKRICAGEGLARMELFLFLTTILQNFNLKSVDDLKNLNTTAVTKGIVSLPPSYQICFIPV
Briefly: Inhibition of CYP2C8 activity (paclitaxel 6α-hydroxylation) in human liver microsomes. It counts as in vitro ADME. The conditions noted are these: HLM, paclitaxel 50 µmol·L^−1, preincubation 30 min at 37 °C, Mean ± S.D. How it is done:
(§1) The following enzyme assays were performed to determine the activities of specific CYP enzymes: CYP1A2, 7-ethoxyresorufin O-deethylation; CYP2A6, coumarin 7-hydroxylation; CYP2B6, 7-ethoxy-4-(trifluoromethyl) coumarin (EFC) O-deethylation; CYP2C8 paclitaxel 6α-hydroxylation; CYP2C9, diclofenac 4′-hydroxylation; CYP2C19, diazepam N-desmethylation; CYP2D6, bufuralol 1′-hydroxylation; CYP2E1, chlorzoxazone 6-hydroxylation; and CYP3A4/5, testosterone 6β-hydroxylation. […]
(§2) For the determination of metabolites formed from specific substrates, a Prominence LC-20A HPLC system (Shimadzu, Kyoto, Japan) with UV detection or fluorescence detection was used (see Table 2). […]
(§3) Initially, for each enzyme assay, a preliminary experiment was carried out to determine Km and Vmax to obtain the appropriate concentration of the specific substrates for the inhibition experiments (the substrate concentration was chosen in the range corresponding to the value of the Km for each particular reaction). Data were analyzed using the Sigma plot software, as mentioned above, with spectral studies. […] In all cases, the inhibition of individual CYP activities was evaluated by plotting the respective remaining activity against the inhibitor concentration.
For orientation: Liver microsomes are a subcellular fraction often used to study metabolism.

A further data set addresses T2, CYP2A6 (Homo sapiens, UniProt P11509).
T2 construct: Pooled human liver microsomes were obtained from Biopredic (Rennes, France); tissue Biopredic (Rennes, France); host or cells: pooled human liver microsomes, seventeen donors
T2 sequence (P11509 1-494): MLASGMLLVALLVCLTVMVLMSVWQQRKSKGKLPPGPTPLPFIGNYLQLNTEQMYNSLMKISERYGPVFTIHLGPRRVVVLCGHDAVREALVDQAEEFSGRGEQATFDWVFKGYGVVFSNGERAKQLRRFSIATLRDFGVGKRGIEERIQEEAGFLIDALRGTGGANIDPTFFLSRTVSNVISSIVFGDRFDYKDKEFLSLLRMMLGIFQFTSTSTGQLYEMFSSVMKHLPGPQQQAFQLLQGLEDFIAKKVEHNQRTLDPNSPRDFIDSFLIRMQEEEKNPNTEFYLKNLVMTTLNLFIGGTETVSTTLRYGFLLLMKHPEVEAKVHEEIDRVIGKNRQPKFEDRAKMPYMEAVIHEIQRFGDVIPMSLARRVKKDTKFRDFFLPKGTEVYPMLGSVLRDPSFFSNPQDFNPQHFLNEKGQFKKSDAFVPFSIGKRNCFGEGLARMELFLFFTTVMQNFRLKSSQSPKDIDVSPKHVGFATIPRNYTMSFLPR
Description: Inhibition of CYP2A6 activity (coumarin 7-hydroxylation) in human liver microsomes. To be noted: HLM, coumarin 15 µmol·L^−1, preincubation 30 min at 37 °C, Mean ± S.D. The format is in vitro ADME. How it is done:
as §1, §2, §3

In another data set the test system is HLM CYP enzymes. Briefly: Spectral study (binding difference spectra) of the interaction with HLM CYP enzymes. Details: species or system human. The conditions noted are these: for Kd: HLM, CYP 1 µmol·L^−1 in 50 mmol·L^−1 potassium phosphate buffer pH 7.4, absorbance change at about 417 nm, room temperature, read-out: spectroscopic binding constant (KS); for mode of binding to HLM CYP enzymes (difference spectra): maximum at about 380 nm, minimum at about 417 nm (Type I binding spectra). From the text:
Spectral studies in the Soret region were used to detect the substrate-induced difference spectra of human liver microsomal (HLM) CYPs. […] The spectral change corresponds to the formation of a maximum formed at about 380 nm and a minimum at about 417 nm (Figure 2). The values of the corresponding spectroscopic binding constant (KS) for the tested compounds were 39.50 ± 10.06 µmol·L^−1 and 44.86 ± 9.88 µmol·L^−1, respectively. These values indicate the relatively specific binding of these complexes on CYPs.
Figure 2 Spectral determination of the interaction between tested complexes No. 5 (a) and No. 6 (b) and CYP in HLM. […] The concentration of CYP in microsomal preparation, 1 µmol·L^−1 in 50 mmol·L^−1 potassium phosphate buffer (pH 7.4).
The binding difference spectra of the interactions of complex No. 5 and complex No. 6 with microsomal CYP enzymes were followed according to established procedures. The cuvette contained HLM that was diluted to a final concentration of CYP 1 µmol·L^−1 in 50 mmol·L^−1 potassium phosphate buffer (pH 7.4). The tested compounds were dissolved in the same buffer, and the concentration ranges in experiments were 0–183 µmol·L^−1, obtained by diluting a 5 mmol·L^−1 stock solution. Spectra were recorded at room temperature by repetitive scanning between 300 and 700 nm at a scan speed of 200 nm/s. The baseline of the reference cuvette contained HLM diluted to the final concentration of CYP 1 µmol·L^−1 in 50 mmol·L^−1 potassium buffer (pH 7.4). Spectra were recorded on a Varian 4000 UV/VIS spectrophotometer (Varian, Palo Alto, CA, USA). The absorbance change at about 417 nm was plotted against the concentration of the tested compounds. Data were analyzed using the Sigma Plot v. 8.0 graphing software (Jandel Scientific, Chicago, IL, USA).

By IC50 is commonly meant the concentration that inhibits the measured activity by half.

For `CN(C)CCN(C)CCN(C)C.CN(C)CCN(C)CCN(C)C.O.O.O=C([O-])/C=C/C(=O)[O-].[Cu+2].[Cu+2].[O-][Cl+3]([O-])([O-])[O-].[O-][Cl+3]([O-])([O-])[O-]` [Complex No. 5, [Cu2(μ-fu)(pmdien)2(H2O)2](ClO4)2], the figures for the IC50 against CYP2C8 and at CYP2A6 were 3.66 ± 0.19 µM and 24.9 ± 0.25 µM, respectively. In addition, the Kd in the data set with HLM CYP enzymes came to 39.5 ± 10.1 µM. Besides, the “mode of binding to HLM CYP enzymes (difference spectra)” value with HLM CYP enzymes is reported as “bind to HLM CYP enzymes as substrates”.

With `CN(C)CCN(C)CCN(C)C.CN(C)CCN(C)CCN(C)C.O.O.O=C([O-])CCSSCCC(=O)[O-].[Cu+2].[Cu+2].[O-][Cl+3]([O-])([O-])[O-].[O-][Cl+3]([O-])([O-])[O-]` [Complex No. 6, [Cu2(μ-dtdp)(pmdien)2(H2O)2](ClO4)2], the IC50 against CYP2C8 was 3.4 ± 0.1 µM; against CYP2A6, 25.13 ± 0.13 µM. Further, the Kd with HLM CYP enzymes was found to be 44.9 ± 9.88 µM. Besides, the “mode of binding to HLM CYP enzymes (difference spectra)” value in the data set on HLM CYP enzymes is “bind to HLM CYP enzymes as substrates”.

These data come from publication PMC11434749, “In Vitro Interaction of Binuclear Copper Complexes with Liver Drug-Metabolizing Cytochromes P450” (Pharmaceuticals, 2024).
